Measurements as given in publication PMC11214964 (Biomolecules & Therapeutics, 2024).
pKi: −log10 of the molar value. Where two headings read alike, the source gives them in different places.

Molecular target: CB1R (Homo sapiens, UniProt P21554)
Test: cell-based
Assay type: binding

CB1R, sequence (P21554 whole entry): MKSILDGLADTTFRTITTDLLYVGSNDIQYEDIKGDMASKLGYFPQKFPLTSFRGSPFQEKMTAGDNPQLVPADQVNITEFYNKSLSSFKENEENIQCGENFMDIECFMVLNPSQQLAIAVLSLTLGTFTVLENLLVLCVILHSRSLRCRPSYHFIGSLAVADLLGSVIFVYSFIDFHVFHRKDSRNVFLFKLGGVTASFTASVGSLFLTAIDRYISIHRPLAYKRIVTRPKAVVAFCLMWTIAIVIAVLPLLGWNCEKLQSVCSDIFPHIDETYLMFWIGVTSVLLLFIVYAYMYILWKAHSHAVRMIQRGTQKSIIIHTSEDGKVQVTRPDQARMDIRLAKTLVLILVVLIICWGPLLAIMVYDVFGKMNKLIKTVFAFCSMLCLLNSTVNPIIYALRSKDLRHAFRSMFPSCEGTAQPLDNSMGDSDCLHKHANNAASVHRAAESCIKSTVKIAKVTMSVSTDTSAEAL

Row | Compound | Ki (read-out: Ki (nM), binding affinity for CB1R, competition with 3 nM [3H]-SR141716A, 6 h at 4°C, Ki=IC50/(1+[D]/Kd)) | pKi
1 | AM-1248 [Compound 10] | 104 nM | –
2 | N#Cc1c(Oc2cccc(OS(=O)(=O)CCCC(F)(F)F)c2)cccc1C(F)(F)F [Compound 29, 3-[2-cyano-3-(trifluoromethyl)phenoxy]phenyl-4,4,4-trifluoro-1-butanesulfonate] | – | 7.74
